Measured values: paper PMC10808720 (Frontiers in Pharmacology, 2024)
Entries after “also recorded” stand apart in the source; their conditions may differ. Like-named read-outs stand apart in the source and are kept apart here.

Tests used:
[1] = system: HAdV5-GFP; experiment: microbe, parasite or virus in culture; format: cell-based, human adenovirus (HAdV5); conditions: for Selectivity index: CC50 (A549) vs IC50 plaque assay (HAdV5)
Method: Compounds were tested using low MOI infections (0.06 vp/cell), initially at concentrations of 10 μM and subsequently in a dose-response assay ranging from 10 μM to 2.44 nM in a plaque assay. Briefly, 293β5 cells were seeded in 6-well plates at a density of 1 × 10^6 cells per well in duplicate for each condition. When the cells reached 80%–90% confluency, they were infected with HAdV5-GFP and rocked for 2 h at 37°C. After the incubation, the inoculum was removed and the cells were washed once with PBS. Cells were then carefully overlaid with equal parts of 4 mL/well 1.6% ([…]) Difco Agar Noble (Becton, Dickinson & Co., Sparks, MD, USA) and 2× Eagle’s Minimum Essential Medium (EMEM; BioWhittaker) supplemented with 2×penicillin/streptomycin, 2× L-glutamine, and 10% FBS. The mixture also contained the compounds in the concentration ranges described above. Following incubation for 7 days at 37°C, plates were scanned with a Typhoon FLA 9000 imager (GE Healthcare Life Sciences) and the formed plaques were quantified with ImageJ ([Schneider et al., 2012]). Plaque counting was performed to calculate the 50% inhibitory concentration (IC50) of each compound using the statistical software GraphPad Prism 6.

[2] = system: HCMV; experiment: Impact on HCMV replication (qPCR of HCMV DNA in HFF); format: cell-based, human cytomegalovirus; conditions: 2-fold IC50 (HAdV plaque assay), 72 h
Method: To test the anti-HCMV activity of these rotenolone-related compounds, human foreskin fibroblasts (HFF; ATCC, Manassas, VA) were seeded in a 24-well plate (8.3 × 10^4 cells/well), infected with HCMV (MOI 0.05 vp/cell), and incubated in complete DMEM in the presence of either 2-fold IC50 concentration of each compound obtained in the plaque assay against HAdV or the same volume of DMSO (positive control) in duplicate. The cells were incubated for 72 h at 37°C and 5% CO2 and HCMV DNA was purified from the cell lysate using E.Z.N.A Tissue DNA Kit (Omega Biotek, Norcross, GA, USA) following the manufacturer’s instructions. The qPCR primers, conditions, and protocols were the same as previously reported ([Mazzotta et al., 2020b]).

[3] = system: wild-type HAdV5; experiment: HAdV yield reduction (burst) assay, TCID50 end-point dilution; format: cell-based, human adenovirus (HAdV5); conditions: 10-fold IC50 concentration, TCID50/ml compound vs. DMSO, A549 cells, 48 h, MOI 100 vp/cell
Method: A549 cells (1.5 × 10^5 cells/well in a 24-well plate) were incubated 24 h in 500 μL of complete DMEM and they were infected with wild-type HAdV5 (MOI 100 vp/cell) when more than 90% of confluency was observed. Infected cells were incubated for 48 h at 37°C in 500 μL of either complete DMEM containing 10-fold IC50 concentration of compounds obtained in the plaque assay or the same volume of DMSO (positive control). After 48 h, the cells were harvested and subjected to three rounds of freeze/thaw. Serial dilutions of the clarified lysates were titrated against A549 cells (3 × 10^4 cells/well in a 96-well plate) and TCID50 values were calculated using an end-point dilution method ([Reed and Muench, 1938]).

[4] = Cytotoxicity assay (AlamarBlue); format: cell-based, Human; conditions: human, A549 cells; for CC50: 48 h
Method: The cytotoxicity of the molecules was analyzed using the commercial kit AlamarBlue® (Invitrogen, Ref. DAL1025) according to the manufacturer’s instructions. Briefly, A549 cells were seeded at a density of 5 × 10^3 cells per well in 96-well plates, and decreasing serial dilutions of each molecule were diluted in 100 μL of DMEM starting at 200 μM. The cells were then incubated at 37°C for 48 h following the manufacturer’s protocol. The cytotoxic concentration 50% (CC50) value was obtained using the statistical software GraphPad Prism 6. The assay was performed in duplicate.

[5] = system: p53/MDM2 complex; format: cell-based, Human; conditions: HAdV5-infected A549 cells, 24 h; for concentration of p53/MDM2 complexes, high vs low cell density: 10-fold IC50
Method: A549 cells were seeded at a density of 1.5 × 10^5 cells per well in a 24-well plate at a high density and 3.75 × 10^4 cells per well at a low density. […] The culture medium was then aspirated and washed with 1X with cold PBS. Later, 200 μL RIPA Lysis Buffer (1% v/v NP-40, 20 mM Tris-HCL pH 7.4, 5 mM Sodium Pyrophosphate, 5 mM EDTA) with freshly added proteinase inhibitor cocktail (Thermo Fisher Scientific) was added to each well and swirled to distribute it evenly. Cells were then scraped and collected to incubate them for 30 min on ice and finally centrifuged at 13,000 × g for 5 min at 4°C. […] This assay was performed in triplicate.

[6] = system: wild-type HAdV5; experiment: HAdV DNA quantification by qPCR; format: cell-based, human adenovirus (HAdV5); conditions: 10-fold IC50; A549; 24 h; vs DMSO control
Method: For DNA quantification, A549 cells (1.5 × 10^5 cells/well in a 24-well plate) were incubated for 24 h in 500 μL of complete DMEM and were infected with wild-type HAdV5 (MOI 100 vp/cell) after observing more than 90% of confluency. Infected cells were incubated for 24 h at 37°C in 500 μL of either complete DMEM containing 10-fold IC50 concentration of the compounds obtained in the plaque assay or the same volume of DMSO (positive control). All samples were prepared in duplicate. After 24 h of incubation at 37°C, DNA was purified from the cell lysate with the E.Z.N.A.® Tissue DNA Kit (Omega Bio-tek, Norcross, GA) following the manufacturer’s instructions. PCR conditions, primers, and probes were as described by [Henke-Gendo et al. (2012)]. Human glyceraldehyde-3-phosphate dehydrogenase (GAPDH) gene was used as an internal control. GAPDH oligonucleotide sequences and conditions were as previously described by [Rivera et al. (2004)].
For quantification, gene fragments from hexons, and GAPDH were cloned into the pGEM-T Easy vector (Promega) and known concentrations of the template were used to generate a standard curve in parallel for each experiment, as previously reported ([Sanchez-Cespedes et al., 2016]). All assays were performed in thermal cycler LightCycler® 96 System (Roche).

[7] = system: HAdV5-RFP; experiment: Anti-HAdV activity after knockdown of RPS14 by siRNA (RFP expression); format: cell-based, human adenovirus (HAdV5); conditions: RPS14 knockdown 293β5 cells; 10-fold IC50; 48 h
Method: An siRNA approach was used to evaluate the antiviral activity of these molecules in the absence of RPS14. According to the supplier’s protocol (Effectene Transfection Reagent, QIAGEN, Valencia, CA), 293β5 cells at 1.5 × 10^4 cells/well were seeded in a clear bottom 96-well microplate a day before transfection. On the day of transfection, 0.1 µg siRNA (MISSION esiRNA RPS14, SigmaAldrich) was diluted in EC buffer up to 30 µL/well and 0.8 µL/well of the enhancer was added and the mix was incubated for 5 min. Effectene transfection reagent was added and the mix was incubated for 10 min to allow transfection complex formation. The cell layers were washed with 1x PBS and transfection complexes were poured over them. After 6 h of incubation, the transfection complexes were removed and the cells were infected with HAdV5-RFP (MOI 2,000 viral particles/cell) in the presence of a 10-fold IC50 concentration of the compounds obtained in the plaque assay or the same volume of DMSO. Standard infection was induced in the presence of the same concentrations of the compounds (performed in triplicate), and a control without siRNA. Cells, viruses, and compounds were incubated for 48 h at 37°C and 5% CO2. Infection, as measured by HAdV5-mediated RFP expression, was analyzed using a Typhoon 9410 imager (GE Healthcare Life Sciences) and quantified using ImageQuantTL (GE Healthcare Life Sciences).

[8] = Human adenovirus sp., 168 h, read-out: IC50 plaque assay

| Structure (SMILES) | Selectivity index [1] | IC50 [1, 8] [µM] | inhibition of HCMV replication [2] | Virus Yield Fold-reduction [3] [fold] | Virus Yield Fold-reduction ([3]; listed as deguelin) [fold] | CC50 [4] [µM] | concentration of p53/MDM2 complexes, high vs low cell density [5] | HAdV DNA copy number (de novo synthesis) [6] | inhibition at 10 µM ([1]; Human adenovirus sp., read-out: inhibition of plaque formation) [%] | increase of HCMV replication compared with the control treated with DMSO [2] | CC50 at 48 h [4] [µM] | IC50 ([1]; Human adenovirus sp.) [µM] | HAdV-mediated RFP expression when no RPS14 was available [7] | concentration of p53/MDM2 complexes [5] |
| --- | --- | --- | --- | --- | --- | --- | --- | --- | --- | --- | --- | --- | --- | --- |
| COc1cc2c(cc1OC)[C@@H]1C(=O)c3ccc4c(c3O[C@@H]1CO2)C=CC(C)(C)O4 [Deguelin, (7aS,13aS)-13,13a-Dihydro-9,10-dimethoxy-3,3-dimethyl-3H-bis ([Mennechet et al., 2019])benzopyrano[3,4-b:6′,5′-e]pyran-7-(7aH)-one] | 2,429.3 | 0.04 ± 0.01 | 50% | 2.7E+02 ± 19.4 | 270 | 97.2 ± 0.1 | non among emetine, rotenone, deguelin and tephrosin alter the concentrations | significant decrease | – | – | – | – | – | – |
| CC1(C)C=Cc2c(ccc3c2O[C@@H]2COc4cc5c(cc4[C@@H]2C3=O)OCO5)O1 [Millettone] | 23.8 | 4.6 ± 0.54 | did not inhibit | – | – | 109 ± 2.2 | – | – | > 98 | more than 10 times | – | – | – | – |
| COc1cc2c(cc1OC)[C@]1(O)C(=O)c3ccc4c(c3O[C@@H]1CO2)C=CC(C)(C)O4 [Tephrosin, hydroxydeguelin] | 538.9 | 0.07 ± 0.03 | 83.4% | 2.7E+03 ± 987.3 | – | – | non among emetine, rotenone, deguelin and tephrosin alter the concentrations | – | – | – | 37.7 ± 0.6 | – | – | – |
| CC[C@H]1CN2CCc3cc(OC)c(OC)cc3[C@@H]2C[C@@H]1C[C@H]1NCCc2cc(OC)c(OC)cc21 [emetine, reference compound] | – | – | – | – | – | 6.17 ± 0.04 | no differences based on the cell density; also recorded: non among emetine, rotenone, deguelin and tephrosin alter the concentrations | – | – | – | – | 0.085 ± 0.019 | reduced | dramatically reduced |
